The source of these data is patent publication US12653190B2, “Heteroaryl-triazole compounds as pesticides” (Bayer Aktiengesellschaft, priority 2020, dated 2026).

Holding throughout (format): in vivo
In assay [1] the test system is Rhipicephalus (Boophilus) microplus larvae (strain Parkhurst, resistant against synthetic pyrethroids). The experiment in a line: Rhipicephalus (Boophilus) microplus in-vitro contact test, larval cattle tick. As to conditions: 5 μg/cm^2 (=500 g/ha), after 48 hours, read-out: efficacy (larvae dead or moribund). As for the experimental part:
Rhipicephalus (Boophilus) microplus—In-Vitro Contact Tests Larval Cattle Tick (Strain Parkhurst, Resistant Against Synthetic Pyrethroids)
(§1) 9 mg compound is solved in 1 mL acetone and diluted with acetone to the desired concentration. 250 μL of the test solution is filled in 25 mL glass test tubes and homogeneously distributed on the inner walls by rotation and tilting on a shaking device (2 h at 30 rpm). With a compound concentration of 900 ppm, an inner surface of 44.7 cm^2 and a homogeneous distribution, a dose of 5 μg/cm^2 is achieved.
After the solvent has evaporated, each test tube is filled with 20-50 cattle tick larvae (Rhipicephalus microplus), closed with a perforated lid and incubated in a horizontal position at 85% relative humidity and 27° C. in an incubator. After 48 hours efficacy is determined. The larvae are patted on the ground of the tubes and negative geotactic behavior is recorded.
An efficacy of 100% means all larvae are dead or moribund; 0% means no larvae are dead or moribund.

In assay [2] the test system is larvae of the southern green stink bug (Nezara viridula). The experiment in a line: Nezara viridula spray test. As to conditions: 96 h, after 4 days, barley plants. As for the experimental part: Nezara viridula—Spray Test
(§2) • Solvent: 78.0 parts by weight of acetone • 1.5 parts by weight of dimethylformamide • Emulsifier: alkylarylpolyglycol ether
(§3) To produce a suitable preparation of active compound, 1 part by weight of active compound is mixed with the stated amount of solvent, and the concentrate is diluted with water, containing an emulsifier concentration of 1000 ppm, to the desired concentration. Further test concentrations are prepared by dilution with emulsifier containing water.
Barley plants (Hordeum vulgare) are sprayed with a test solution containing the desired concentration of the active ingredient and are infested with larvae of the southern green stink bug (Nezara viridula).
After 4 days mortality in % is determined. 100% means all the stink bugs have been killed; 0% means none of the stink bugs have been killed.

For assay [3], the system named is adult mosquitoes Culex quinquefasciatus strain P00. The experiment in a line: Culex quinquefasciatus test (CULXFA surface treatment & contact assay). As to conditions: 24 hours after contact, read-out: efficacy (mortality). As for the experimental part:
Culex quinquefasciatus Test (CULXFA Surface Treatment & Contact Assay)
(§4) • Solvent: Aceton+2000 ppm rapeseed oil methyl ester (RME)
In order to produce a sufficient, active ingredient containing solution it is necessary to solve the test compound in the solvent-mix (acetone at 2 mg/ml/RME 2 000 ppm). This solution is pipetted onto a glazed tile and after evaporation of the acetone, adult mosquitoes of the species Culex Quinquefasciatus strain P00 are placed onto the dried surface. The exposure time is 30 minutes. Mortality in percent (%) is determined 24 hours after contact of the insects to the treated surface. 100% mortality means that all tested insects are dead, whereas 0% means that no insect died.

For assay [4], the system named is green peach aphid (Myzus persicae). The experiment in a line: Myzus persicae spray test. As to conditions: foliar, 120 h, after 5 days, Chinese cabbage leaf disks. As for the experimental part: Myzus persicae—Spray Test
(§5) • Solvent: 78.0 parts by weight acetone • 1.5 parts by weight dimethylformamide • Emulsifier: alkylarylpolyglycol ether
(§6) To produce a suitable preparation of active compound, 1 part by weight of active compound is mixed with the stated amount of solvents and is diluted with water, containing an emulsifier concentration of 1000 ppm, to the desired concentration. Further test concentrations are prepared by dilution with emulsifier containing water.
Chinese cabbage (Brassica pekinensis) leaf disks infected with all instars of the green peach aphid (Myzus persicae), are sprayed with a preparation of the active ingredient of the desired concentration.
After 5 days mortality in % is determined. 100% means all aphids have been killed and 0% means none of the aphids have been killed.

Assay [5] relates to adult flies Musca domestica strain WHO-N. The assay is described as follows: Musca domestica test (MUSCDO surface treatment & contact assay). As to conditions: 24 hours after contact, read-out: efficacy (mortality). The protocol: Musca domestica Test (MUSCDO Surface Treatment & Contact Assay)
as §4
In order to produce a sufficient, active ingredient containing solution it is necessary to solve the test compound in the solvent-mix (acetone at 2 mg/ml/RME 2000 ppm). This solution is pipetted onto a glazed tile and after evaporation of the acetone, adult flies of the species Musca domestica strain WHO-N are placed onto the dried surface. The exposure time is 30 minutes.
(§7) Mortality in percent (%) is determined 24 hours after contact of the insects to the treated surface. 100% mortality means that all tested insects are dead, whereas 0% means that no insect died.

Assay [6] relates to larvae of the banded cucumber beetle (Diabrotica balteata). The assay is described as follows: Diabrotica balteata spray test. As to conditions: 168 h, after 7 days, wheat seeds, read-out: efficacy (seedling growth); for pest or weed control at 32 µg/disc, 100 g/ha: 100 g/ha (=32 μg/well). The protocol:
Diabrotica balteata—Spray Test
as §2, §3
Soaked wheat seeds (Triticum aestivum) are placed in a multiple well plate filled with agar and some water and are incubated for 1 day to germinate (5 seeds per well). The germinated wheat seeds are sprayed with a test solution containing the desired concentration of the active ingredient. Afterwards each unit is infected with 10-20 larvae of the banded cucumber beetle (Diabrotica balteata).
After 7 days efficacy in % is determined. 100% means all the seedlings have grown up like in the untreated, uninfected control; 0% means none of the seedlings have grown.

The subject of assay [7] is adult mosquitoes Aedes aegypti strain MONHEIM. The experiment in a line: Aedes aegypti test (AEDSAE surface treatment & contact assay). As to conditions: 24 hours after contact, read-out: efficacy (mortality). The protocol: Aedes aegypti Test (AEDSAE Surface Treatment & Contact Assay)
as §4
In order to produce a sufficient, active ingredient containing solution it is necessary to solve the test compound in the solvent-mix (acetone at 2 mg/ml/RME 2000 ppm). This solution is pipetted onto a glazed tile and after evaporation of the acetone, adult mosquitoes of the species Aedes aegypti strain MONHEIM are placed onto the dried surface. The exposure time is 30 minutes.
as §7

The subject of assay [8] is adult engorged female ticks (Rhipicephalus microplus). The assay is described as follows: Rhipicephalus (Boophilus) microplus injection test. As to conditions: 168 h, egg deposition monitored after 7 days, read-out: efficacy (infertile eggs); for pest or weed control at 4 µg/tick: 4 μg/tick injected; for pest or weed control at 20 µg/tick: 20 μg/tick injected. As for the experimental part:
Rhipicephalus (Boophilus) microplus—Iniectiontest
(§8) • Solvent: dimethyl sulfoxide
To produce a suitable preparation of active compound, 10 mg of active compound are dissolved in 0.5 mL solvent, and the concentrate is diluted with solvent to the desired concentration.
Five adult engorged female ticks (Rhipicephalus microplus) are injected with 1 μL compound solution into the abdomen. The ticks are transferred into replica plates and incubated in a climate chamber.
After 7 days egg deposition of fertile eggs is monitored. Eggs where fertility is not visible are stored in a climate chamber till hatching after about 42 days. An efficacy of 100% means all eggs are infertile; 0% means all eggs are fertile.

For assay [9], the system named is adult unfed cat fleas (Ctenocephalides felis). The assay is described as follows: Ctenocephalides felis oral test. As to conditions: 48 h, 100 ppm in cattle blood, after 2 days. The protocol:
Ctenocephalides felis—Oral Test
as §8
To produce a suitable preparation of active compound, 10 mg of active compound are dissolved in 0.5 mL solvent, and the concentrate is diluted with cattle blood to the desired concentration.
Approximately 20 adult unfed cat fleas (Ctenocephalides felts) are placed in flea chambers. The blood chamber, sealed with parafilm on the bottom, are filled with cattle blood supplied with compound solution and placed on the gauze covered top of the flea chamber, so that the fleas are able to suck the blood. The blood chamber is heated to 37° C. whereas the flea chamber is kept at room temperature.
After 2 days mortality in % is determined. 100% means all the fleas have been killed; 0% means none of the fleas have been killed.

The test system of assay [10] is fall armyworm larvae (Spodoptera frugiperda). The experiment in a line: Spodoptera frugiperda spray test. As to conditions: in Zea mays, 168 h. As for the experimental part:
Spodoptera frugiperda—Spray Test
as §5, §6
Maize (Zea mays) leaf sections are sprayed with a preparation of the active ingredient of the desired concentration. Once dry, the leaf sections are infested with fall armyworm larvae (Spodoptera frugiperda). After 7 days mortality in % is determined. 100% means all caterpillars have been killed and 0% means none of the caterpillars have been killed.

In assay [11] the test system is adult cat fleas (Ctenocephalides felis). The assay is described as follows: Ctenocephalides felis in-vitro contact test, adult cat flea. As to conditions: 5 μg/cm^2 (=500 g/ha), after 48 hours, read-out: efficacy (fleas dead or moribund). As for the experimental part:
Ctenocephalides felis—In-Vitro Contact Tests Adult Cat Flea
as §1
After the solvent has evaporated, each test tube is filled with 5-10 adult cat fleas (Ctenocephalides felis), closed with a perforated lid and incubated in a lying position at room temperature and relative humidity. After 48 hours efficacy is determined. The fleas are patted on the ground of the tubes and are incubated on a heating plate at 45-50° C. for at most 5 minutes Immotile or uncoordinated moving fleas, which are not able to escape the heat by climbing upwards, are marked as dead or moribund.
An efficacy of 100% means all fleas are dead or moribund; 0% means no fleas are dead or moribund.

[12] abbreviates: surface concentration 4 mg/m^2, 30 minutes exposure.
[13] abbreviates: surface concentration 20 mg/m^2, 30 minutes exposure.

Molecules are shown by their SMILES.

What is called mortality is the share of the test organisms that died. On to `C[C@H](NC(=O)c1cc(OC(F)(F)F)cc(C(C)(C)C#N)c1)c1ncnn1-c1ccc(C#N)cn1` [Example I-45], for which the pest or weed control at 5 µg/cm2, 5 µg/cm2 in assay [1] amounted to 100%. The mortality at 100 g/ha was 100% in [2] (100 g/ha) and 90% in assay [4]. The compound also displayed a mortality at 500 g/ha in assay [2] (500 g/ha) of 100%. The mortality at 4 mg/m2 in assay [3] (setting [12]), in assay [5] (setting [12]) and in assay [7] (setting [12]) was 80 to 100% in each case. The mortality at 20 mg/m2 in [3] (setting [13]), in assay [5] (setting [13]) and in [7] (setting [13]) was 80 to 100% throughout. In addition, the pest or weed control at 32 µg/disc, 100 g/ha in assay [6] turned out to be 100%.

Turning to `Cc1nc([C@H](C)NC(=O)c2cc(OCC3CCOCC3)cc(C(F)(F)F)c2)n(-c2ccc(C#N)cn2)n1` [Example I-19, N-{(1S)-1-[1-(5-Cyanopyridin-2-yl)-3-methyl-1H-1,2,4-triazol-5-yl]ethyl}-3-(tetrahydro-2H-pyran-4-ylmethoxy)-5-(trifluoromethyl)benzamide], the pest or weed control at 5 µg/cm2, 5 µg/cm2 in [1] stood at 100%. Further, the pest or weed control at 4 µg/tick in assay [8] turned out to be 100%. The compound also showed a mortality at 100 ppm in assay [9] of 80%.

As for `C[C@H](NC(=O)c1cc(Cl)cc(Cn2cc(C(F)(F)F)cn2)c1)c1ncnn1-c1ccc(C#N)cn1` [Example I-10], in assay [8], the pest or weed control at 4 µg/tick was found to be 100% and the pest or weed control at 20 µg/tick stood at 100%. The compound also displayed a mortality at 100 ppm in [9] of 100%.

With `Cc1cc(OC2CCC2)cc(C(=O)N[C@@H](C)c2ncnn2-c2ccc(C#N)cn2)c1` [Example I-5, N-{(1S)-1-[1-(5-Cyanopyridin-2-yl)-1H-1,2,4-triazol-5-yl]ethyl}-3-(cyclobutyloxy)-5-methylbenzamide], the pest or weed control at 20 µg/tick in assay [8] came to 100%. This compound also showed a mortality at 100 ppm in assay [9] of 100%. The pest or weed control at 160 µg/disc, 500 g/ha in assay [6] (500 g/ha (=160 μg/well)) amounted to 100%.

As for `C[C@H](NC(=O)c1cc(Br)cc(OC(C)(C)C#N)c1)c1ncnn1-c1ncc(C#N)s1` [Example I-60], the pest or weed control at 5 µg/cm2, 5 µg/cm2 in assay [1] is 100%; in [11], 80%. For the same compound, in [10], the mortality at 100 g/ha was determined as 100%. Further, the pest or weed control at 32 µg/disc, 100 g/ha in [6] was 100%.

With `C[C@H](NC(=O)c1cc(Br)cc(C=C(Cl)Cl)c1)c1ncnn1-c1ccc(C#N)cn1` [Example I-23], the pest or weed control at 4 µg/tick in [8] is 100%. In addition, in [9], the mortality at 100 ppm turned out to be 100%.

On to `C[C@H](NC(=O)c1cccc(CC#N)c1)c1ncnn1-c1ccc(C#N)cn1` [Example I-2], for which the pest or weed control at 5 µg/cm2, 5 µg/cm2 in assay [1] is 80%. Further, in [8], the pest or weed control at 4 µg/tick was found to be 100% and the pest or weed control at 20 µg/tick worked out at 100%. For the same compound, the mortality at 100 ppm in assay [9] came out at 100%.

For `CC(C#N)c1cccc(C(=O)N[C@@H](C)c2ncnn2-c2ccc(C#N)cn2)c1` (stereo partly shown) [Example I-1], in assay [1], the pest or weed control at 5 µg/cm2, 5 µg/cm2 stood at 90%. Also, the pest or weed control at 20 µg/tick in assay [8] came out at 100%. In addition, the mortality at 100 ppm in assay [9] amounted to 100%.

For the compound `C[C@H](NC(=O)c1cc(Cl)cc(Oc2ccc(Cl)cc2)c1)c1ncnn1-c1ccc(C#N)cn1` [Example I-8], in assay [8], the pest or weed control at 4 µg/tick was 80% and the pest or weed control at 20 µg/tick came to 100%. In addition, in assay [9], the mortality at 100 ppm stood at 90%.

Compound `Cc1cc(OCC2CC2)cc(C(=O)N[C@@H](C)c2ncnn2-c2ccc(C#N)cn2)c1` [Example I-3, N-{(1S)-1-[1-(5-Cyanopyridin-2-yl)-1H-1,2,4-triazol-5-yl]ethyl}-3-(cyclopropylmethoxy)-5-methylbenzamide] had a mortality at 500 g/ha in assay [10] of 100%. Also, in [8], the pest or weed control at 4 µg/tick was 100% and the pest or weed control at 20 µg/tick turned out to be 100%. In addition, the mortality at 100 ppm in assay [9] amounted to 100%.
